Reference: patent US8586552B2, “4,6-substituted 2,5-dideoxystreptamine aminoglycoside antibiotics” (SelectX Pharmaceuticals, Inc., priority 2012, dated 2013)
Converted amounts (≈) assume the structure as drawn.

Experiments:
Assay type in all cases: cell-based
[1] = test system: Pseudomonas aeruginosa PR1 (clinical isolate with intermediate aminoglycoside resistance); assay: MIC against Pseudomonas aeruginosa clinical isolate PR1; conditions: Pseudomonas aeruginosa resistant strain PR1
From the text: (§1) Pseudomonas aeruginosa is a prominent nosocomial pathogen. In addition to intrinsic antibiotic resistance to several antibiotics, Pseudomonas has acquired multiple additional mechanisms of resistance. As a result, therapeutic options for the treatment of infections caused by Pseudomonas aeruginosa are limited. We acquired clinical isolates of Pseudomonas aeruginosa (Micromyx LLC, Kalamazoo, Mich.), and used this panel to test compounds for Pseudomonicidal activity. […] For each strain and antibiotic, the mechanism(s) of resistance was inferred from the resistance profile. The presence of specific AGMEs was confirmed by colony PCR.

[2] = test system: Pseudomonas aeruginosa (Pae, PAWT, ATCC #27853); assay: MIC against Pseudomonas aeruginosa reference strain PAWT; conditions: Pseudomonas aeruginosa wild type PAWT; for MIC: ATCC27853
From the text: (§2) For evaluation of efficacy, we assembled panels of representative gram-negative pathogens, including Pseudomonas aeruginosa (Pae, PAWT, ATCC #27853), Klebsiella pneumoniae (Kpn, KPWT, ATCC #700603), Acinetobacter baumannii (Aba, ABWT, ATCC #BAA-747) and Escherichia coli (Eco, ECWT, ATCC #25922). These reference strains are useful indicator organisms to characterize compound activity against bacteria from a pathogenic genus in the absence of multiple resistance mechanisms. Two strains (PAWT and ECWT) are reference strains cited within the Clinical and Laboratory Standards Institute (CLSI) Standards for susceptibility testing by Minimum Inhibitory Concentration (MIC) (SXPS2) and are well suited for quality control. ABWT and ECWT are widely susceptible to aminoglycoside antibiotics, whereas PAWT and KPWT harbor a single aminoglycoside-modifying enzyme (AGME) that targets 4,6-substituted-2-deoxystreptamine AGs. […]

[3] = test system: Pseudomonas aeruginosa PR2 (clinical isolate with intermediate aminoglycoside resistance); assay: MIC against Pseudomonas aeruginosa clinical isolate PR2; conditions: Pseudomonas aeruginosa resistant strain PR2
From the text: as §1

[4] = test system: Pseudomonas aeruginosa PR3 (high-level, efflux-mediated, pan-aminoglycoside resistance); assay: MIC against Pseudomonas aeruginosa clinical isolate PR3; conditions: for MIC PR3: Pseudomonas aeruginosa resistant strain PR3; for MIC: Pseudomonas aeruginosa, read-out: MIC PR3
From the text: as §1

[5] = test system: fifty resistant contemporary clinical isolates of Klebsiella pneumoniae; assay: MIC90 against panel of resistant clinical isolates of Klebsiella pneumoniae; conditions: Klebsiella pneumoniae; fifty resistant contemporary clinical isolates, reference antibiotics
From the text: Using this stringent Klebsiella pneumoniae panel, we tested a subset of compounds of the invention.

[6] = test system: more than fifty resistant contemporary clinical isolates of Pseudomonas aeruginosa; assay: MIC90 against panel of resistant clinical isolates of Pseudomonas aeruginosa; conditions: Pseudomonas aeruginosa
From the text: To assess this, a panel of more than fifty resistant contemporary clinical isolates of Pseudomonas aeruginosa were obtained from multiple sources including JMI Laboratories (North Liberty, Iowa), Pfizer (Groton, Conn.), Micromyx (Kalamazoo, Mich.), Dr. J. Chow (Wayne State University). Strains were characterized for resistance to a wide variety of classes of antibiotics including aminoglycosides, β-lactams and fluoroquinolones. […] This reflects the difficulty in treating clinical Pseudomonas aeruginosa infections. […] Using this stringent panel, we tested a subset of compounds of the invention (Table 4).

[7] = test system: Acinetobacter baumannii (Aba, ABWT, ATCC #BAA-747); assay: MIC against Acinetobacter baumannii reference strain ABWT; conditions: for MIC: ATCCBAA747
From the text: as §2

[8] = test system: Escherichia coli (Eco, ECWT, ATCC #25922); assay: MIC against Escherichia coli reference strain ECWT; conditions: for MIC: ATCC25922
From the text: For evaluation of efficacy, we assembled panels of representative gram-negative pathogens, including Pseudomonas aeruginosa (Pae, PAWT, ATCC #27853), Klebsiella pneumoniae (Kpn, KPWT, ATCC #700603), Acinetobacter baumannii (Aba, ABWT, ATCC #BAA-747) and Escherichia coli (Eco, ECWT, ATCC #25922). These reference strains are useful indicator organisms to characterize compound activity against bacteria from a pathogenic genus in the absence of multiple resistance mechanisms. Two strains (PAWT and ECWT) are reference strains cited within the Clinical and Laboratory Standards Institute (CLSI) Standards for susceptibility testing by Minimum Inhibitory Concentration (MIC) (SXPS2) and are well suited for quality control. ABWT and ECWT are widely susceptible to aminoglycoside antibiotics, whereas PAWT and KPWT harbor a single aminoglycoside-modifying enzyme (AGME) that targets 4,6-substituted-2-deoxystreptamine AGs.

[9] = test system: Klebsiella pneumoniae (Kpn, KPWT, ATCC #700603); assay: MIC against Klebsiella pneumoniae reference strain KPWT; conditions: Klebsiella pneumoniae KPWT, Table 2; for MIC: ATCC700603
From the text: as §2, with “These reference strains are useful indicator organisms to characterize compound activity against bacteria from a pathogenic genus in the absence of multiple resistance mechanisms.” left out

[10] = test system: Klebsiella pneumoniae screening panel KPWT, KR1, KR2, KR3; assay: Klebsiella pneumoniae screening panel (KPWT, KR1, KR2, KR3), reference AGs
From the text: Klebsiella pneumoniae (Kpn) and Escherichia coli (Eco) are gram-negative (like Pae), enteric pathogens with increasing clinical relevance. Many clinical isolates of Kpn and Eco harbor extended-spectrum beta-lactamases and are no longer sensitive to most beta-lactam antibiotics. We acquired clinical isolates of Klebsiella pneumoniae and Escherichia coli (Micromyx LLC, Kalamazoo, Mich.) and used this panel to test compounds for anti-enteric activity.

| Molecule | MIC PR1 [1] [µg/mL] | MIC PAWT [2] [µg/mL] | MIC PR2 [3] [µg/mL] | MIC PR3 [4] [µg/mL] | MIC90 [5] [µg/mL] | MIC90 [6] [µg/mL] | further results |
| --- | --- | --- | --- | --- | --- | --- | --- |
| NCC[C@H](O)C(=O)N[C@@H]1C[C@H](N)[C@@H](O[C@H]2O[C@H](CN)[C@@H](O)[C@H](O)[C@H]2O)[C@@H](F)[C@H]1O[C@H]1O[C@H](CNC(=O)[C@H](N)CCCNC(N)=O)[C@@H](O)[C@H](N)[C@H]1O [SXP1212-56″-7] | 16 (≈ 21.5 µM) | 4 (≈ 5.38 µM) | 16 (≈ 21.5 µM) | 128 (≈ 172 µM) | – | – | – |
| CC(C)[C@H](N)C(=O)NC[C@H]1O[C@H](O[C@@H]2[C@H](F)[C@H](O[C@H]3O[C@H](CN)[C@@H](O)[C@H](O)[C@H]3O)[C@@H](N)C[C@H]2NC(=O)[C@@H](O)CCN)[C@H](O)[C@@H](N)[C@@H]1O [SXP1212-56″-8] | 8 (≈ 11.7 µM) | 4 (≈ 5.83 µM) | 8 (≈ 11.7 µM) | 64 (≈ 93.3 µM) | – | – | – |
| C[C@H]1[C@H](NC(=O)/C(=N\OC(C)(C)C(=O)O)c2csc(N)n2)C(=O)N1S(=O)(=O)O [aztreonam] | – | – | – | – | ≥ 64 | ≥ 64 | – |
| CO/N=C(\C(=O)N[C@@H]1C(=O)N2C(C(=O)[O-])=C(C[N+]3(C)CCCC3)CS[C@H]12)c1csc(N)n1 [cefepime] | – | – | – | – | ≥ 64 | ≥ 64 | – |
| CC(C)(O/N=C(\C(=O)N[C@@H]1C(=O)N2C(C(=O)[O-])=C(C[n+]3ccccc3)CS[C@H]12)c1csc(N)n1)C(=O)O [ceftazidime] | – | – | – | – | ≥ 64 | ≥ 64 | – |
| CO/N=C(\C(=O)N[C@@H]1C(=O)N2C(C(=O)O)=C(CSc3nc(=O)c(=O)[nH]n3C)CS[C@H]12)c1csc(N)n1 [ceftriaxone] | – | – | – | – | ≥ 64 | ≥ 64 | – |
| NC[C@@H]1CC[C@@H](N)[C@@H](O[C@H]2[C@H](O)[C@@H](O[C@H]3O[C@H](CO)[C@@H](O)[C@H](N)[C@H]3O)[C@H](N)C[C@@H]2N)O1 [dibekacin] | – | – | – | – | – | – | MIC [1]: 4 µg/mL (≈ 8.86 µM); MIC [7]: 0.25 µg/mL (≈ 0.554 µM); MIC [2]: 0.25 to 0.5 µg/mL (≈ 0.554 to 1.11 µM); MIC PAWT ([2]; listed as DIB): 0.25 to 0.5 µg/mL; MIC [3]: > 64 µg/mL; MIC [8]: 1 to 2 µg/mL (≈ 2.21 to 4.43 µM); MIC [9]: 16 µg/mL (≈ 35.4 µM); potency against Klebsiella pneumoniae test panel [10]: limited to no activity; MIC [4]: > 64 µg/mL |
| C[C@@H](O)[C@H]1C(=O)N2C(C(=O)O)=C(S[C@@H]3CN[C@H](CNS(N)(=O)=O)C3)[C@H](C)[C@H]12 [doripenem] | – | – | – | – | ≥ 64 | ≥ 64 | – |
| C[C@@H](O)[C@H]1C(=O)N2C(C(=O)O)=C(S[C@@H]3CN[C@H](C(=O)Nc4cccc(C(=O)O)c4)C3)[C@H](C)[C@H]12 [ertapenem] | – | – | – | – | ≥ 64 | ≥ 64 | – |
| C[C@@H](O)[C@H]1C(=O)N2C(C(=O)O)=C(SCCN=CN)C[C@H]12 [imipenem] | – | – | – | – | ≥ 64 | ≥ 64 | – |
| NC[C@H]1O[C@H](O[C@H]2[C@H](O)[C@@H](O[C@H]3O[C@H](CO)[C@@H](O)[C@H](N)[C@H]3O)[C@H](N)C[C@@H]2N)[C@H](O)[C@@H](O)[C@@H]1O [kanamycin A] | >64 | >64 | >64 | >64 | – | – | MIC ABWT [7]: 1 µg/mL (≈ 2.06 µM); MIC ECWT [8]: 4 µg/mL (≈ 8.26 µM); MIC KPWT [9]: 32 µg/mL (≈ 66 µM); potency against Klebsiella pneumoniae test panel [10]: limited to no activity |
| NC[C@H]1O[C@H](O[C@H]2[C@H](O)[C@@H](O[C@H]3O[C@H](CO)[C@@H](O)[C@H](N)[C@H]3O)[C@H](N)C[C@@H]2N)[C@H](N)[C@@H](O)[C@@H]1O [kanamycin B] | 64 (≈ 132 µM) | 16 (≈ 33.1 µM) | >64 | >64 | – | – | MIC ABWT [7]: 0.5 to 1 µg/mL; MIC ECWT [8]: 2 µg/mL (≈ 4.14 µM); MIC KPWT [9]: 16 µg/mL (≈ 33.1 µM); potency against Klebsiella pneumoniae test panel [10]: limited to no activity |
| C[C@H]1COc2c(N3CCN(C)CC3)c(F)cc3c(=O)c(C(=O)O)cn1c23 [levofloxacin] | – | – | – | – | ≥ 64 | ≥ 64 | – |
| C[C@@H](O)[C@H]1C(=O)N2C(C(=O)O)=C(S[C@@H]3CN[C@H](C(=O)N(C)C)C3)[C@H](C)[C@H]12 [meropenem] | – | – | – | – | ≥ 64 | ≥ 64 | – |
| NC[C@@H]1O[C@H](O[C@H]2[C@@H](O)[C@H](O[C@@H]3[C@@H](O)[C@H](N)C[C@H](N)[C@H]3O[C@H]3O[C@H](CN)[C@@H](O)[C@H](O)[C@H]3N)O[C@@H]2CO)[C@H](N)[C@@H](O)[C@@H]1O [neomycin] | 32 (≈ 52.1 µM) | 32 (≈ 52.1 µM) | 8 to 16 | >64 | – | – | MIC ABWT [7]: 0.25 to 0.5 µg/mL; MIC ECWT [8]: 1 µg/mL (≈ 1.63 µM); MIC KPWT [9]: 4 to 8 µg/mL |
| CCN1CCN(C(=O)N[C@@H](C(=O)N[C@@H]2C(=O)N3[C@@H]2SC(C)(C)[C@@H]3C(=O)O)c2ccccc2)C(=O)C1=O [piperacillin] | – | – | – | – | ≥ 64 | ≥ 64 | – |
| CN[C@@H]1[C@@H](O)[C@@H](O[C@@H]2[C@@H](O)[C@H](O[C@H]3OC(CN)=CC[C@H]3N)[C@@H](N)C[C@H]2N)OC[C@]1(C)O [sisomycin] | 4 (≈ 8.94 µM) | 0.25 to 0.5 | >64 | >64 | – | – | MIC KPWT [9]: 1 to 2 µg/mL |
| CN[C@@H]1[C@H](O)[C@H](NC)[C@H]2O[C@@]3(O)C(=O)C[C@@H](C)O[C@H]3O[C@@H]2[C@H]1O [spectinomycin] | – | – | – | – | – | – | MIC [1]: > 64 µg/mL; MIC [7]: 16 µg/mL (≈ 48.1 µM); MIC [2]: > 64 µg/mL; MIC [3]: > 64 µg/mL; MIC [8]: 8 to 16 µg/mL (≈ 24.1 to 48.1 µM); MIC [9]: 64 µg/mL (≈ 193 µM); MIC [4]: > 64 µg/mL |
| [H]/N=C(/N)N[C@H]1[C@H](O)[C@@H](O)[C@H](O[C@@H]2O[C@@H](C)[C@](O)(C=O)[C@H]2O[C@@H]2O[C@@H](CO)[C@H](O)[C@@H](O)[C@@H]2NC)[C@@H](N/C(N)=N\[H])[C@@H]1O [streptomycin] | – | – | – | – | – | – | MIC [1]: 64 µg/mL (≈ 110 µM); MIC [7]: 2 to 4 µg/mL (≈ 3.44 to 6.88 µM); MIC [2]: 16 µg/mL (≈ 27.5 µM); MIC [3]: 16 µg/mL (≈ 27.5 µM); MIC [8]: 4 µg/mL (≈ 6.88 µM); MIC [9]: 1 to 2 µg/mL (≈ 1.72 to 3.44 µM) |
| NC[C@H]1O[C@H](O[C@H]2[C@H](O)[C@@H](O[C@H]3O[C@H](CO)[C@@H](O)[C@H](N)[C@H]3O)[C@H](N)C[C@@H]2N)[C@H](N)C[C@@H]1O [tobramycin] | – | – | – | – | ≥ 64 | ≥ 64 | MIC [1]: 2 µg/mL (≈ 4.28 µM); MIC [7]: 0.25 µg/mL (≈ 0.535 µM); MIC [2]: 0.25 µg/mL (≈ 0.535 µM); MIC [3]: > 64 µg/mL; MIC [8]: 1 µg/mL (≈ 2.14 µM); MIC [9]: 8 µg/mL (≈ 17.1 µM); MIC [4]: > 64 µg/mL |
| gentamycin | 8 | 1 | >64 | >64 | – | – | MIC ABWT [7]: 0.25 to 0.5 µg/mL; MIC ECWT [8]: 0.5 µg/mL; MIC KPWT [9]: 8 µg/mL |
